Results reported in paper PMC8152265, “Seconeolitsine, the Novel Inhibitor of DNA Topoisomerase I, Protects against Invasive Pneumococcal Disease Caused by Fluoroquinolone-Resistant Strains” (Antibiotics, 2021).
Values after ≈ are worked out from the molar mass of the structure shown. Like-named read-outs stand apart in the source and are kept apart here. Blank lines part the entries; values can stand above or below the molecule they belong to.

Assays:
[1] = tested on: S. pneumoniae isolate CipR5 (serotype 33F); assay: MIC by broth microdilution, isolate CipR5; type: cell-based, Streptococcus pneumoniae; details: AGCH medium, 18–24 h
Method: (§1) Bacteria were grown in Todd-Hewitt broth supplemented with 0.5% yeast extract (Difco) to an optical density at 580 nm (OD580) of 0.4 to 0.5 corresponding to ca. 10^8 CFU/mL. Single-use aliquots were stored at −80 °C in 10% glycerol to use in mice infections as previously described. Antimicrobial susceptibility was tested by broth microdilution, according to the Clinical and Laboratory Standards Institute guidelines. S. pneumoniae R6 was included as a quality control. Powders of known potency of LVX and MXF were purchased from Sigma. SCN was synthesized as previously described. Briefly, for MIC determination, pneumococcal strains were grown in a casein hydrolysate-based medium with 0.3% sucrose as an energy source (AGCH medium). A 96-well plate was used including broth containing different concentrations of antibiotics. Plates were inoculated with a standardized suspension of the pneumococcal strains followed by incubation at 37 °C with 5% CO2 for 18–24 h. The minimal inhibitory concentrations (MICs) were determined by observing the lowest concentration of the agent that inhibited visible growth of the bacterium.

[2] = tested on: S. pneumoniae isolate CipR15 (serotype 16F); assay: MIC by broth microdilution, isolate CipR15; type: cell-based, Streptococcus pneumoniae; details: AGCH medium, 18–24 h
Method: as §1

[3] = tested on: S. pneumoniae isolate CipR45 (serotype 8); assay: MIC by broth microdilution, isolate CipR45; type: cell-based, Streptococcus pneumoniae; details: isolate CipR45, serotype 8, low-level FQ-resistant, AGCH medium, 18–24 h
Method: as §1

[4] = tested on: S. pneumoniae isolate CipR57 (serotype 8); assay: MIC by broth microdilution, isolate CipR57; type: cell-based, Streptococcus pneumoniae; details: isolate CipR57, serotype 8, high-level FQ-resistant, AGCH medium, 18–24 h
Method: as §1

[5] = tested on: S. pneumoniae isolate CipR72 (serotype 15A); assay: MIC by broth microdilution, isolate CipR72; type: cell-based, Streptococcus pneumoniae; details: AGCH medium, 18–24 h
Method: as §1

[6] = tested on: S. pneumoniae isolate CipR45; assay: Mouse sepsis model, survival after infection with CipR45; type: in vivo, Streptococcus pneumoniae; details: mice infected i.p. with CipR45
Method: (§2) BALB/c female mice (8–12 weeks old) weighing 20 g were purchased from Harlan Laboratories (Barcelona, Spain). […] Different concentrations of antibiotic (10, 20, and 40 mg/kg for SCN; 12.5, 25, and 50 mg/kg for LVX) were administered two times a day over 48 h by the subcutaneous route. The doses, interval, and schedule chosen were based in previous studies investigating the protective activity of FQs against pneumococcal sepsis in mice. Seconeolitsine stock solution was dissolved in dimethyl sulfoxide (DMSO) and the doses tested for protection in animals were prepared in PBS containing 1% DMSO. Animals in the lethal control groups were infected with S. pneumoniae and received the antibiotic solvent (PBS−1% DMSO) instead of SCN or LVX. The toxicity control for each antibiotic (no infection group) only received SCN or LVX. Animal experiments were performed in groups of at least 5 mice and were repeated twice.

[7] = tested on: S. pneumoniae isolate CipR57; assay: Mouse sepsis model, survival after infection with CipR57; type: in vivo, Streptococcus pneumoniae; details: for survival within the first 48 h post-infection / survival at 36 h post-infection: mice infected i.p. with CipR57; for survival within the first 48 h post-infection: any concentration investigated (12.5 to 50 mg/kg s.c. every 12 h)
Method: as §2

[8] = tested on: S. pneumoniae isolate CipR57; assay: Bacterial counts in blood of mice infected with CipR57; type: in vivo, Streptococcus pneumoniae; details: for effect on bacterial load in blood compared to the untreated group: 24 and 48 h post-infection, LVX 25 and 50 mg/kg, SCN different doses; for bacterial levels in blood at 24 h: 24 h post-infection; for bacteria in blood at 48 h: 48 h post-infection
Method: Bacteremic profiles (colony counts in blood) were determined from mice treated with SCN and LVX, at 24 h and 48 h post-infection, when the majority of mice were alive. To collect blood samples, volumes of 6 µl were obtained from the tail vein, as previously described, resuspended in PBS and plated onto blood agar plates at 37 °C in 5% CO2 for colony counts determination.

[9] = Serum pharmacokinetics in non-infected mice after single subcutaneous dose; type: in vivo, BALB/c mice
Method: Groups of two mice for each antibiotic and time-point were treated with a single subcutaneous dose of 40 mg/kg of SCN or 50 mg/kg of LVX. Blood samples were collected at 15 and 30 min and 1, 2, 4, 6, 8, 10, 12, 14, 18, and 24 h, centrifuged for 10 minutes at 2000 rpm, and the sera from the different mice were stored at −80 °C until drug assay determination.
Seconeolitsine concentrations were measured by high-pressure liquid chromatography analysis (HPLC). Chromatographic separation was performed using SunFire C18 column (150 × 4.6 mm; Waters Corporation, MA, USA) with trifluoroacetic acid and acetonitrile in the ratio 70:30 (vol./vol.) as the mobile phase. The solvent flow rate was 1.0 mL/min with a runtime of 20 minutes. The mobile phase was filtered through 0.45 µm prior to use. Standards ranging from 0−1.000 µg/mL were prepared in HPLC grade methanol. Sample dilutions, prepared in mouse serum, were injected into the column at a constant volume of 20 µl and were tested in duplicate. The detection wavelength was 270 by UV absorbance using a Waters UV–Visible 2489 module (Waters Corporation). The column was maintained at room temperature.
Plates containing a lawn of microorganism were incubated for 18–24 h at 37 °C. Standards and dilutions were prepared in mouse serum in a range from 0.03–8 µg/ mL.
Pharmacokinetic (PK) parameters measured included peak level (Cmax), time peak level (Tmax), area under the concentration time-curve from 0 to last (Clast) measured concentration (AUClast), and elimination half-life (t1/2). These parameters were estimated for both the total concentrations and the free fraction concentrations and were determined by using protein binding values, by a non-compartmental approach with the Phoenix WinNonlin program (version 6.2, Certara, NJ, USA). […] T>MIC for total and unbound concentrations (fT>MIC) were determined by a non-compartmental approach for PD data (Phoenix WinNonlin, model 220).

plasma proteins = assay: Protein binding by ultrafiltration; type: in vitro ADME; details: murine plasma
Method: Binding to serum proteins was determined by the ultrafiltration method (36) using the Centrifree micropartition system (Amicon Bioseparations, Millipore, Tullagreen, Ireland) with concentrations in murine plasma of 1 and 50 μg/mL for SCN and 5 and 50 μg/mL for LVX. Pre-filtered samples and ultrafiltrates recovered were measured by HPLC or bioassay, as described above. Percentage of SCN or LVX bound to proteins in mouse serum was calculated using the expression: [antibiotic in pre−filtered samples] − [antibiotic in ultrafiltrated samples]/[antibiotic in pre-filtered samples] × 100 as previously described.

S. pneumoniae Topo I = tested on: S. pneumoniae Topo I; parameters: method as in PMID 21169356; details: cited from earlier work
S. pneumoniae = tested on: S. pneumoniae; parameters: method as in PMID 21169356; details: cited from earlier work
human cell = tested on: human cell; parameters: method as in PMID 21169356; details: cited from earlier work
[10] = Toxicity control, non-infected mice; type: in vivo, BALB/c mice; details: 40 mg/kg, largest concentration used; 7 days of follow-up
Method: as §2

Hydrosolubility = type: physicochemical; details: data not shown
[11] = Streptococcus pneumoniae, read-out: MIC
[12] = BALB/c, mouse, in vivo, sc, 50 mg/kg
[13] = mouse serum, single s.c. dose 40 mg/kg (seconeolitsine) or 50 mg/kg (levofloxacin)

SMILES: O=C(O)c1cn(C2CC2)c2cc(N3CCNCC3)c(F)cc2c1=O [CIP, ciprofloxacin]
- MIC [1, 11]: 16 µg/mL (≈ 48.3 µM)
- MIC [2, 11]: 32 µg/mL (≈ 96.6 µM)
- MIC [3, 11]: 4 µg/mL (≈ 12.1 µM)
- MIC [4, 11]: 64 µg/mL (≈ 193 µM)
- MIC [5, 11]: 64 µg/mL (≈ 193 µM)

SMILES: C[C@H]1COc2c(N3CCN(C)CC3)c(F)cc3c(=O)c(C(=O)O)cn1c23 [Levofloxacin, levofloxacin]
- MIC [1, 11]: 8 µg/mL (≈ 22.1 µM)
- MIC [2, 11]: 16 µg/mL (≈ 44.3 µM)
- MIC [3, 11]: 2 µg/mL (≈ 5.53 µM)
- MIC [4, 11]: 16 µg/mL (≈ 44.3 µM)
- MIC [5, 11]: 32 µg/mL (≈ 88.6 µM)
- survival at 36 h post-infection ([6]; 12.5 mg/kg s.c. every 12 h over 48 h): 40%
- survival at 36 h post-infection ([6]; 25 mg/kg s.c. every 12 h over 48 h): 80%
- survival at 36 h post-infection ([6]; 50 mg/kg s.c. every 12 h over 48 h): 100%
- survival at 78 h post-treatment ([6]; 12.5 to 50 mg/kg s.c. every 12 h over 48 h): all mice succumbed to the infection
- survival within the first 48 h post-infection [7]: all died within the first 48 h
- survival within the first 48 h post-infection ([7]; listed as LVX): all the animals died within the first 48 h post-infection
- effect on bacterial load in blood compared to the untreated group [8]: did not reduce bacterial levels in blood
- bacterial levels in blood at 24 h [8]: around 10^8 CFU/mL
- bacteria in blood at 48 h [8]: High levels of bacterial counts
- Cmax [9, 12]: 14700 ± 700 ng/mL
- Tmax [9, 12]: 15 min
- half-life [9, 12]: 42 min
- AUC(0-t) ([9]; BALB/c, mouse, in vivo, sc, 50 mg/kg, AUC0-12h): 17300 ± 1500 ng·h/mL
- AUC(0-t) ([9]; BALB/c, mouse, in vivo, sc, 50 mg/kg, AUC0-24h): 34600 ± 2900 ng·h/mL
- binding to plasma proteins (plasma proteins; 5 µg/mL): 12%
- binding to plasma proteins (plasma proteins; 50 µg/mL): 33%

- MIC [1, 11]: 2 µg/mL (≈ 4.98 µM)
- MIC [2, 11]: 4 µg/mL (≈ 9.96 µM)
- MIC [3, 11]: 0.25 µg/mL (≈ 0.623 µM)
- MIC [4, 11]: 4 µg/mL (≈ 9.96 µM)
- MIC [5, 11]: 4 µg/mL (≈ 9.96 µM)
SMILES: COc1c(N2C[C@@H]3CCCN[C@@H]3C2)c(F)cc2c(=O)c(C(=O)O)cn(C3CC3)c12 [MXF, moxifloxacin]

SMILES: CN(C)CCc1cc2c(c3c1ccc1cc4c(cc13)OCO4)OCO2 [N-methyl-seconeolitsine]
- concentration inhibiting S. pneumoniae Topo I activity in vitro (S. pneumoniae Topo I): ~ 10 µM
- concentration inhibiting cell growth (S. pneumoniae): ~ 10 µM
- effect on human cell viability (human cell): without affecting human cell viability

SMILES: CNCCc1cc2c(c3c1ccc1cc4c(cc13)OCO4)OCO2 [Seconeolitsine, seconeolitsine]
- MIC [1]: 5.2 µg/mL (≈ 16.1 µM)
- MIC [2]: 2.6 µg/mL (≈ 8.04 µM)
- MIC [3]: 5.2 µg/mL (≈ 16.1 µM)
- MIC [4]: 2.6 µg/mL (≈ 8.04 µM)
- MIC [5]: 5.2 µg/mL (≈ 16.1 µM)
- survival at 36 h post-infection ([7]; 20 mg/kg s.c. every 12 h over 48 h): 60%
- survival at 36 h post-infection ([7]; 40 mg/kg s.c. every 12 h over 48 h): 70%
- protection at 48 h ([7]; mice infected with a serotype 8-resistant strain, 40 mg/kg every 12 h during two days (abstract)): 70%
- effect on bacterial load in blood compared to the untreated group [8]: significantly reduced bacterial load
- bacterial levels in blood at 24 h [8]: 10^4−10^5 CFU/mL
- bacteria in blood at 48 h [8]: a significant proportion of mice treated with SCN were free of bacteria
- SCN-derived metabolites in murine plasma ([9]; by HPLC): not detected
- AUC0-12h [9, 13]: 5000 ± 0 ng·h/mL
- Cmax [9, 13]: 1600 ± 300 ng/mL
- Cmin [9, 13]: 300 ± 40 ng/mL
- Tlast [9, 13]: 9.0 ± 1.4 h
- Tmax [9, 13]: 60 ± 0 min
- t1/2 [9, 13]: 468 ± 144 min
- AUC0-24h ([9]; mouse serum, single s.c. dose 40 mg/kg (seconeolitsine) or 50 mg/kg (levofloxacin), twice the AUC0-last): 10000 ± 100 ng·h/mL
- binding to plasma proteins (plasma proteins; 1 µg/mL): 40%
- binding to plasma proteins (plasma proteins; 50 µg/mL): 80%
- harm to non-infected mice (survival, aspect, breathing, hair, eyes, appetite, movement, weight) [10]: not harmful
- hydrosolubility (Hydrosolubility): poor hydrosolubility
- concentration inhibiting S. pneumoniae Topo I activity in vitro (S. pneumoniae Topo I): ~ 10 µM
- concentration inhibiting cell growth (S. pneumoniae): ~ 10 µM
- effect on human cell viability (human cell): without affecting human cell viability
